The text below walks through data of PubChem BioAssay (NCI).

Common to all, as to assay: NCI anticancer screen, dose series, 48 h
The subject of assay [1] is HOP-62 NSCLC.
Assay [2] concerns BT-549 breast.
Assay [3] deals with SF-539 CNS.
Assay [4] concerns UO-31 renal.
The test system of assay [5] is K-562 leukemia.
The subject of assay [6] is RXF 393 renal.
The subject of assay [7] is HS 578T breast.
Assay [8] concerns NCI/ADR-RES ovarian.
In assay [9] the test system is SNB-19 CNS.
Assay [10] relates to CCRF-CEM leukemia.

Several values for one entry are separate records, joined by “and”; a condition that tells them apart may be missing. Equal entries are not always repeated.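 Assay format: 96-well plates, 48-hour exposure. GI50 marks 50% less growth. TGI is the concentration that stops growth completely.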

As to `C=C(CN1CCN(c2cccc(C(F)(F)F)n2)CC1)c1ccc(C(=S)Nc2ccccc2N)cc1`, the GI50 in [1] is 8.08 µM; in assay [2] it was 4.4 µM; in [3], 5.72 µM; in [4], 4.14 µM; in assay [5] it was 1.57 µM; in assay [6], 3.74 µM. Further, the results for the GI50 in [7], in assay [8] and in assay [9] were 3.52 µM, 3.12 µM and 4.12 µM, respectively. In addition, the TGI in assay [1] is more than 100 µM; in [2] it was more than 100 µM; in [3], more than 100 µM; in [4], more than 100 µM; in assay [5], 4.48 µM; in assay [6], more than 100 µM. The TGI in [7], in assay [8] and in [9] was more than 100 µM each time.

As for `COc1ccc(CNc2nc3cc(N)cc(N)c3nc2-c2ccccc2)cc1`, the GI50 was 17.2 µM in assay [1]; 6.52 µM in [2]; 11.4 µM in assay [4]; 3.36 µM in [10]; 25.4 µM in assay [5]; 5.32 µM in assay [6]. The GI50 in [7] was 26.9 µM; in assay [8] it was 22.7 µM; in [9], 41.5 µM. Further, the TGI is 34.3 µM in [1]; 30.7 µM in assay [2]; 28.7 µM in [4]; 65.3 µM in [10]; 97.1 µM in assay [5]; 18.4 µM in assay [6]. The TGI was more than 100 µM in assay [7], 83.3 µM in assay [8] and more than 100 µM in [9].

`CC/C(=C(/c1ccc(O)cc1)c1ccc(OCCN2CCCCC2)cc1)c1ccc(OC)cc1`: the GI50 in assay [1] was 1.83 µM; in assay [2] it was 1.6 µM; in [3], 1.66 µM; in assay [4] it was 1.13 µM; in [10] it was 0.513 µM; in [5] it was 0.29 µM. For the same molecule, the GI50 is 2.09 µM in [7], 8.15 µM in assay [8] and 1.97 µM in [9]. In addition, the TGI was determined as 3.91 µM in assay [1]; 3.19 µM in assay [2]; 3.19 µM in assay [3]; 2.49 µM in assay [4]; 5.09 µM in assay [10]; 1.16 µM in assay [5]. In addition, the TGI in assay [7] was 5.52 µM; in assay [8], 22.4 µM; in [9], 4.62 µM.

Take `CN(C)CCOC(c1ccccc1)c1ccccc1`: the GI50 in [1] is 36 µM; in assay [2], 33.7 µM; in [4], 32.6 µM; in assay [7], 32.2 µM; in assay [8], 33.1 µM. For the same molecule, the TGI is 50.9 µM and > 100 µM in [1]; 48.4 µM in assay [2]; 47.4 µM and > 100 µM in assay [4]; more than 100 µM in assay [10]; more than 100 µM in assay [5]; 51.3 µM and > 100 µM in [7]. Further, the TGI in assay [8] was 48.9 µM and > 100 µM.

With `O=C(NO)c1ccc(Cn2c(=O)n(-c3ccccc3F)c(=O)c3ccccc32)cc1`, the GI50 in assay [2] was 1.9 µM; in [3] it was 1.53 µM; in assay [4] it was 1.83 µM; in [10], 2.07 µM; in assay [5] it was 2.62 µM; in [6], 1.33 µM. In addition, the results for the GI50 in assay [7], in assay [8] and in assay [9] were 1.9 µM, 2.54 µM and 2.54 µM, respectively. Also, the TGI in assay [2] was 4.13 µM; in assay [3] it was 4.58 µM; in assay [4] it was 4.75 µM; in [10], more than 100 µM; in assay [5], more than 100 µM; in assay [6] it was 2.9 µM. Further, the TGI in [7] worked out at 11.9 µM; in [8] it was 43 µM; in assay [9] it was 18.2 µM.

Turning to `Cc1cn2c(/C=N/N=C(N)N)c(-c3cccnc3)nc2s1`, the GI50 in assay [1] was 10 µM; in assay [2], 12.8 µM; in assay [4] it was 6.1 µM; in [10], 4.38 µM; in assay [6], 15.2 µM; in assay [7] it was 23.5 µM. In addition, the GI50 is 2.81 µM in assay [8] and 12.7 µM in assay [9]. Moreover, the TGI stood at 24 µM in assay [1]; 30.9 µM in [2]; 21.4 µM in assay [4]; 55 µM in [10]; 59.1 µM in assay [6]; 47.1 µM in assay [7]. The values for the TGI in [8] and in assay [9] were 9.97 µM and 28.9 µM, respectively.

`CC(=O)C1(N=Nc2ccc(S(N)(=O)=O)cc2)CCOC1=O` (stereo unspecified): the TGI in assay [1], in assay [2], in [3], in assay [4], in assay [10] and in assay [6] was more than 100 µM each time. The TGI in [7], in [8] and in assay [9] was more than 100 µM in each case.

For `S=c1nc(Cl)cc2[nH]c(Cl)cn12`, the TGI in [1] is more than 100 µM; in assay [2], more than 100 µM; in assay [3], 5.69 µM; in assay [4], more than 100 µM; in assay [10], 6.04 µM; in assay [6], more than 100 µM. The figures for the TGI in [7], in assay [8] and in assay [9] were 6.34 µM, 6.89 µM and more than 100 µM, respectively.

For the molecule `CCOC(=O)[C@@H](C)C[C@H](Cc1ccccc1)NC(=O)c1csc([C@@H](C[C@H](C(C)C)N(C)C(=O)[C@H](CC)NC(=O)[C@H]2CCCCN2C)OC(C)=O)n1`, the GI50 in assay [1] was 0.00367 µM; in assay [2], 0.00368 µM; in [3], 0.00306 µM; in assay [4], 0.0128 µM; in [10], 0.00397 µM; in assay [5] it was less than 0.00167 µM. The GI50 is 0.00405 µM in assay [7], 0.0675 µM in assay [8] and 0.00199 µM in [9]. The TGI in assay [1] is more than 16.7 µM; in [2], 0.143 µM; in [3] it was 0.0098 µM; in assay [4] it was more than 16.7 µM; in assay [10] it was more than 16.7 µM; in assay [5], more than 16.7 µM. The TGI in assay [7] is more than 15.5 µM; in assay [8], more than 15.7 µM; in [9], more than 16.7 µM.
